Measurements taken from article PMC6774072, “Azologization and repurposing of a hetero-stilbene-based kinase inhibitor: towards the design of photoswitchable sirtuin inhibitors” (Beilstein Journal of Organic Chemistry, 2019).
Read-outs that look alike come from different tables or passages of the source.

Key:
Sirt2 = target: T1, Sirt2 (Homo sapiens, UniProt Q8IXJ6); assay: fluorescence-based deacetylase assay with Z-Lys(acetyl)-AMC (ZMAL) substrate; assay type: biochemical; settings: read-out: Sirt2 inhibition IC50
T1 construct: Sirt2_56−356; made in house
T1 sequence (Q8IXJ6 56-356): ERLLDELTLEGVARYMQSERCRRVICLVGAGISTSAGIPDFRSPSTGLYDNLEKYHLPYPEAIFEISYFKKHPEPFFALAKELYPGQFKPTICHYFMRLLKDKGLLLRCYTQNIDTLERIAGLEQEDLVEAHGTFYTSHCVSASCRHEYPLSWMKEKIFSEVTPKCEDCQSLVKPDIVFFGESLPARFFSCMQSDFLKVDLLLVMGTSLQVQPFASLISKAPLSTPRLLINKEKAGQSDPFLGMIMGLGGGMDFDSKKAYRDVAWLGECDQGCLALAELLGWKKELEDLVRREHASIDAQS
Experimental: The influence on deacetylase activity of three human sirtuin isoforms (Sirt1–3) was determined in a fluorescence-based assay, using Z-Lys(acetyl)-AMC (ZMAL) as a substrate. Compared to the lead structure 2a, all compounds except 2e–h show increased inhibitory activity against Sirt2 (Table 1). […] Moreover, a slight increase in selectivity for Sirt2 and Sirt3 over Sirt1 could be observed for 2c, 4a and 4b. […] Though not photoswitchable, compounds 4a and 4b were synthesized to test the influence of a rigid conformation around the C=C double bond on sirtuin inhibition. […] A recently developed fluorescence polarization (FP)-based assay enables mapping of ligand binding to this specific binding site. For 2a an interaction with the selectivity pocket was already implied in the same work. Additionally performed docking studies proposed a binding mode in which 2a mimics the nicotinamide residue of NAD^+, whereas aromatic amino acid residues of the selectivity pocket stabilize the dimethylphenol ring. As photoisomerization in stilbenes and azo dyes is accompanied by a perpendicular twist of the phenyl ring towards the former molecular plane, we assumed that this conformational change should provoke a differential binding situation at least for the dimethylphenol residue in 2a. Unfortunately, binding of 2b and c could not be localised in the vicinity of the selectivity pocket of Sirt2, so that the binding pose remains unclear.
The photoswitchable diazeno compound 11 was subjected to biological evaluation to test the effect of photoisomerization on the inhibitory activity. The enzyme assay mixture containing 11 was exposed to 5 minutes of 365 nm radiation and compared with the results of a non-irradiated measurement. […] Unfortunately, 365 nm radiation turned out to have only minor effects on the IC50 values of 11 (Table 3).
Cloning, expression and purification of recombinant proteins: Expression and purification of Sirt1_133-747, Sirt2_56−356, and Sirt3_118−395 was carried out as described previously. Identity and purity were verified by SDS-PAGE [65]. Protein concentration was determined by the Bradford assay.
Bioassay: The inhibitory effect of compounds 2a–h, 4a/b, 8a and 11 on Sirt1–3 was detected via a previously reported fluorescence based assay. The synthetic substrate Z-Lys(acetyl)-AMC (ZMAL) is deacetylated by sirtuins, followed by tryptic digestion and thereby release of […], leading to a fluorescent readout. Inhibition was determined by comparing percentage substrate conversion to a DMSO control after subtraction of the blank fluorescence signal. All compounds were tested at 100 µM, 50 µM and 10 µM, respectively. […] IC50 values were calculated with OriginPro 9.0 G using a non-linear regression to fit the dose response curve. An enzyme-free blank control and a 100% conversion control using AMC instead of ZMAL were measured as well. Inhibition measurements were performed in biological duplicates for all compounds.

[1] = PSS thermal half-life of 11 by UV/Vis spectroscopy; assay type: physicochemical; settings: PSS after 365 nm irradiation; 50 µM in 5% DMSO (v/v) in enzyme assay buffer
Experimental: PSS thermal half-life of 11
The thermal half-life of 11 after 5 minutes of 365 nm irradiation was determined by UV/Vis-spectroscopy. Therefore, a 50 µM solution of 11 in 5% DMSO (v/v) in enzyme assay buffer was prepared and an initial spectrum of the thermal equilibrium recorded. After 5 minutes of irradiation with 365 nm the increase of absorbance at the thermal equilibrium maximum ( λ = 324 nm) was followed over a period of 96 hours (Figure S6). Absorbance at 324 nm was plotted as a function of time. A non-linear regression yielded the half-live of the PSS. Due to the slow rate of thermal isomerization only a short period could be measured. Therefore the limit value was set to 0.939 as this was the absorbance at 324 nm of 11 at the thermal […]
Figure S6: 11 (50 µM) in 5% DMSO (v/v) in enzyme assay buffer after 5 minutes of 365 nm irradiation. Absorbance at 324 nm of plotted as a function of time with non-linear fit (red line).
(1 picture or pasted object on this page, not shown here)
Table S2: Non-linear fit of measured values.

[2] = isomer composition of 11 at thermal equilibrium and photostationary states, HPLC with UV–vis detection at the isosbestic points; assay type: physicochemical
Source text: The photoisomerization could be reversed by exposure to visible light, i.e. 452 nm, albeit the PSS at 452 nm still comprised about 25% of (Z)-11 as determined by HPLC analysis using UV–vis detection at the isosbestic points (Table 2). Light of 500 nm could also reverse photoisomerization, but was not as effective as 452 nm radiation. […] Switching between the two PSS could be repeated several times without any observable fatigue of the compound (Figure 5).
Photochemistry: All photoisomerization experiments were conducted under ruby light of 630 nm. Illumination was executed using a Bio-Link 254 Crosslinker from Vilber-Lourmat equipped with six Vilber-Lourmat T8-C lamps (8 W, 254 nm) or six Vilber-Lourmat T8-L lamps (8W, 365 nm), respectively. Visible light radiation of 630 nm (red), 500 nm (green) and 452 nm (blue) was derived from a Paulmann FlexLED 3D strip. All compounds were irradiated in solution, using spectrophotometric grade solvents. Photoisomerization and UV–vis spectra measurement was conducted in quartz cuvettes at room temperature. […]
of 11 (1 mM) were injected before and after 5 minutes of 365 nm or 1 minute of 452 nm irradiation. Isocratic elution with 60% MeOH and 40% water (+ 0.1% HCOOH) for 12 minutes at 1 mL∙min−1 was applied and gave complete separation of the isomers. Integration of the peak areas at the isosbestic points (λobs = 244 nm and 270 nm) gave the relative percentage of (E)-11 and (Z)-11, respectively (Figure S5).
Table S1. Isomer composition ((E)-11 / (Z)-11) at the thermal equilibrium (∆) and the PSS after 5 minutes of 365 nm and 1 minute of 452 nm radiation. […]

Compound: NC(=O)c1cncc(N=Nc2ccc(F)cc2)c1 [Compound 11, 5-[(4-Fluorophenyl)diazenyl]nicotinamide]
- IC50 (Sirt2; photostationary state (PSS) after 5 minutes of 365 nm irradiation): 24.1 ± 1.69 µM
- IC50 (Sirt2; thermal equilibrium (∆), non-irradiated): 18.9 ± 1.38 µM
- t½ of PSS (thermal) [1]: 12.5 days
- percentage of (Z)-11 in PSS ([2]; 365 nm irradiation): 84%
- percentage of (Z)-11 in PSS ([2]; 452 nm irradiation, HPLC, UV–vis detection at isosbestic points): about 25%
- Isomer composition ((E)-11 / (Z)-11) ([2]; PSS (365 nm), 5 minutes, λobs 244 nm): 17 / 83
- Isomer composition ((E)-11 / (Z)-11) ([2]; PSS (365 nm), 5 minutes, λobs 270 nm): 16 / 84
- Isomer composition ((E)-11 / (Z)-11) ([2]; PSS (452 nm), 1 minute, λobs 244 nm): 76 / 24
- Isomer composition ((E)-11 / (Z)-11) ([2]; PSS (452 nm), 1 minute, λobs 270 nm): 74 / 26
- Isomer composition ((E)-11 / (Z)-11) ([2]; thermal equilibrium (∆), λobs 244 nm): 98 / 2
- Isomer composition ((E)-11 / (Z)-11) ([2]; thermal equilibrium (∆), λobs 270 nm): 99 / 1
